This passage reports IC50 and Activity results from ChEMBL document CHEMBL1142468, “Discovery, SAR and X-ray structure of 1H-benzimidazole-5-carboxylic acid cyclohexyl-methyl-amides as inhibitors of inducible T-cell kinase (Itk)” (Bioorg Med Chem Lett, 2008).

For assay [1], the target named is T1, Tyrosine-protein kinase ITK/TSK (Homo sapiens, UniProt Q08881).
T1 sequence (Q08881 whole entry): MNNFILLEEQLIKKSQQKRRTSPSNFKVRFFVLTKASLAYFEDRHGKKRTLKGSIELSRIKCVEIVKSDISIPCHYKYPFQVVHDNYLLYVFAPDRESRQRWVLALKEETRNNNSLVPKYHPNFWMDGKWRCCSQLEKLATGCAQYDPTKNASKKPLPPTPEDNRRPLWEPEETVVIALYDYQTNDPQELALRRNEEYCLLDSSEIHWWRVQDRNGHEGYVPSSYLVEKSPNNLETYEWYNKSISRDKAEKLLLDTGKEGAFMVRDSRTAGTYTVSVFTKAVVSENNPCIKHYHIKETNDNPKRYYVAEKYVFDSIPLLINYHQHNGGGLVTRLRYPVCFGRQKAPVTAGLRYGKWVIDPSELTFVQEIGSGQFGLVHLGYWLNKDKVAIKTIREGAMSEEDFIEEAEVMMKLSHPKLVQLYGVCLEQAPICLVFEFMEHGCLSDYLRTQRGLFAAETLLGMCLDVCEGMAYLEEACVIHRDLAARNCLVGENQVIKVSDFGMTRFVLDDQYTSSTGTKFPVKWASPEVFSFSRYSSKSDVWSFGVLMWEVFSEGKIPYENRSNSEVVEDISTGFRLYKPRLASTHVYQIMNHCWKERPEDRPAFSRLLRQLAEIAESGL
The assay is described as follows: Inhibition of ITK by DELFIA assay.

Assay [2] has as its target Insulin receptor (Homo sapiens, UniProt P06213). The assay is described as follows: Inhibition of IRK.
The target of assay [3] is T1, Tyrosine-protein kinase ITK/TSK. The assay is described as follows: Inhibition of human ITK expressed in chicken DT40 cells assessed as B cell receptor-stimulated calcium influx by FLIPR assay. Format: cell-based.
Assay [4] can be described thus: Inhibition of anti-CD3-induced IL2 secretion in mouse TH1 cells.
Assay [5] relates to T-cell. The assay is described as follows: Inhibition of anti-CD3/anti-CD28-induced IL2 secretion in human CD4+ T cells.
Assay [6] has as its target Tyrosine-protein kinase BTK (Homo sapiens) (UniProt Q06187). The assay is described as follows: Inhibition of Btk.
Assay [7] has as its target Tyrosine-protein kinase Lyn (Homo sapiens) (UniProt P07948). The assay is described as follows: Inhibition of Lyn kinase.
Assay [8] deals with Tyrosine-protein kinase SYK (Homo sapiens) (UniProt P43405). In words: Inhibition of Syk.
Assay [9] relates to Splenocyte. In words: Inhibition of anti-CD3-induced IL2 secretion in mouse splenocytes.
Assay [10] deals with Mus musculus. In words: Inhibition of anti-CD3-induced IL2 production in sc dosed mouse. The format is functional, organism-based.

Each structure is given as a SMILES string. Active and inactive are the calls of the source. No cut-off for these calls is given here.

Sequence of Insulin receptor (P06213 28-758 limits assumed): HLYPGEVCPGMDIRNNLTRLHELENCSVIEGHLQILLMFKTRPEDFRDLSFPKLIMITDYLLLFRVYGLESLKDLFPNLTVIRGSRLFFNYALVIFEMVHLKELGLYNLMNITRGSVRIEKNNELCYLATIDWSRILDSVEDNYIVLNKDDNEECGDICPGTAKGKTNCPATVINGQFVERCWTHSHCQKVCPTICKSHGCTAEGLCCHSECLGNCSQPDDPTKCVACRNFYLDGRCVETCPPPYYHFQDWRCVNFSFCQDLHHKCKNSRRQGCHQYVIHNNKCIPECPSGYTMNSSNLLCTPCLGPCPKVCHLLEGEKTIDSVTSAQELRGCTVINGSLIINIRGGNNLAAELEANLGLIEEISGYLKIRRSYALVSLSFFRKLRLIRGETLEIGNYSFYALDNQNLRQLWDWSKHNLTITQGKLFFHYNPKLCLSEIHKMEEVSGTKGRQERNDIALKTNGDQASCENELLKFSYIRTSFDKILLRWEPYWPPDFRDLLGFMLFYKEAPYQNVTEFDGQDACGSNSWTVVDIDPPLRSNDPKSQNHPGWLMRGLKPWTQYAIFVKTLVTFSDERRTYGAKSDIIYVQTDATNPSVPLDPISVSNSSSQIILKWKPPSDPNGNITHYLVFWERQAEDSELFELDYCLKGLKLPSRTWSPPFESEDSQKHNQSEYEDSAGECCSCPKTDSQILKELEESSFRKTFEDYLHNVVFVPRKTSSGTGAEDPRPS
Sequence of Insulin receptor (P06213 763-1382 limits assumed): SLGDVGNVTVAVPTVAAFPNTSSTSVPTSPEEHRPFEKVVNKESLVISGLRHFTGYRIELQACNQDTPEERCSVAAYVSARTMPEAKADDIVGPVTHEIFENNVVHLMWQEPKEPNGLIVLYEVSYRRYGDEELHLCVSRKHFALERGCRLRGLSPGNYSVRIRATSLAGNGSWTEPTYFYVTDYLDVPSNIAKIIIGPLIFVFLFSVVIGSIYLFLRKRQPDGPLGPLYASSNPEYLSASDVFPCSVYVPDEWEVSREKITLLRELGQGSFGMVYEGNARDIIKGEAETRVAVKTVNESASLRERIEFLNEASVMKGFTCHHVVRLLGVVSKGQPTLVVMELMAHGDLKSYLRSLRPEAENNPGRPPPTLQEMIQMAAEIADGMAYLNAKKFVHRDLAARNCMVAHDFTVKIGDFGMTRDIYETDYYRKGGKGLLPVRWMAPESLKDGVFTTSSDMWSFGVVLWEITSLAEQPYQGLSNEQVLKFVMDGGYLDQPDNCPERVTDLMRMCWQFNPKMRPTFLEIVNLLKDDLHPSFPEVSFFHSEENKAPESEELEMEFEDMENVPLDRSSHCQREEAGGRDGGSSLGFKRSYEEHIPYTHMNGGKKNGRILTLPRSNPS
Sequence of Tyrosine-protein kinase BTK (Homo sapiens) (Q06187 whole entry): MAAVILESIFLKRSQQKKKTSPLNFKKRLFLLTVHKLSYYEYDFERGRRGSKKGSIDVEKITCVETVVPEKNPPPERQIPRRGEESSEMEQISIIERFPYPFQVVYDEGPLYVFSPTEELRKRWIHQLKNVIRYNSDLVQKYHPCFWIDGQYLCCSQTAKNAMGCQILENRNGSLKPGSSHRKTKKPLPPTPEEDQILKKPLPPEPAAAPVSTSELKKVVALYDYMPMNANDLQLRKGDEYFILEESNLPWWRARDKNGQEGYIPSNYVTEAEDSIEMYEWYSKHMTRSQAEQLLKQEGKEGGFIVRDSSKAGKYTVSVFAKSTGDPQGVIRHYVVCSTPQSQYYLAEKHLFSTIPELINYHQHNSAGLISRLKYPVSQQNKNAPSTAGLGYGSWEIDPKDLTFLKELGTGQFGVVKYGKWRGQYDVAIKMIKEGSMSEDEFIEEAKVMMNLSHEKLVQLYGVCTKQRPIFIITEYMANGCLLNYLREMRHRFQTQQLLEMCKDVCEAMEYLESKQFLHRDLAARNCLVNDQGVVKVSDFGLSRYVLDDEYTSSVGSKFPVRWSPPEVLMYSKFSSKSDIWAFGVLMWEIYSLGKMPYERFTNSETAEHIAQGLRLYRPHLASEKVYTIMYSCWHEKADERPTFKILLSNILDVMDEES
Sequence of Tyrosine-protein kinase Lyn (Homo sapiens) (P07948 2-512 limits assumed): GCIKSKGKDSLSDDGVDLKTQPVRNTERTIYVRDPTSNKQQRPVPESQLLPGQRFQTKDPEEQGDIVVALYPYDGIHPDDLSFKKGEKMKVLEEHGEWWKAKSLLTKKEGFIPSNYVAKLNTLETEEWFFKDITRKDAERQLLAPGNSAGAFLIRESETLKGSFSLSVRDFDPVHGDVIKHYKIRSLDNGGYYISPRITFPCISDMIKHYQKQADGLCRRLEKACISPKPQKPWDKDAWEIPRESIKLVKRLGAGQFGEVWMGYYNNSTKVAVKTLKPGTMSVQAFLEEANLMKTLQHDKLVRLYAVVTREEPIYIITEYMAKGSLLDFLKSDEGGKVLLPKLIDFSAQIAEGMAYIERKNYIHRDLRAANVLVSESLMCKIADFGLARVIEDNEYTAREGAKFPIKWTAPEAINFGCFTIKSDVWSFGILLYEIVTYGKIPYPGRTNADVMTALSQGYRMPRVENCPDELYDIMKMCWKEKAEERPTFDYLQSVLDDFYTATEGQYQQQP

`CNc1ccc2c(c1)nc(NC(=O)c1ccc(C#N)cc1)n2CCC(N)=O`: half-maximal inhibition in assay [1] (IC50) required 76 nM.

In the case of `Cc1cccc(C(=O)Nc2nc3cc(N(C)C(=O)C4CCCCC4)ccc3n2CCC(N)=O)c1`, the IC50 in [2] stood at 550 nM.

In assay [1], `CC(C(=O)C1CCCCC1)c1ccc2c(c1)nc(CC(=O)c1ccc(C#N)cc1)n2CCC(N)=O` (stereo not drawn) yielded an IC50 of 3 nM.

Molecule `Cc1ccc(C(=O)Nc2nc3cc(N(C)C(=O)C4CCCCC4)ccc3n2CCC(N)=O)cc1` displayed an IC50 in assay [2] of over 10000 nM.

Consider `CN(C(=O)C1CCCCC1)c1ccc2c(c1)nc(NC(=O)c1ccc(C#N)cc1)n2CCCn1ccnc1`, for which the IC50 in assay [1] came out at 4 nM; in [3] it was 510 nM; in assay [4], 350 nM; in assay [5] it was 650 nM.

`CN(C(=O)C1CCCCC1)c1ccc2c(c1)nc(NC(=O)c1cccc(C#N)c1)n2CCC(N)=O`: in assay [2], it took 125 nM to reach half-maximal inhibition (IC50).

`CN(C(=O)C1CCCCC1)c1ccc2c(c1)nc(N)n2CCC(N)=O`: the IC50 in assay [1] is over 20000 nM.

As to `COCCCn1c(NC(=O)c2ccc(C#N)cc2)nc2cc(N(C)C(=O)C3CCCCC3)ccc21`, the midpoint of inhibition in assay [1], the IC50, lay at 16 nM.

The molecule `CC(C)C(=O)N(C)c1ccc2c(c1)nc(NC(=O)c1ccc(C#N)cc1)n2CCC(N)=O` returned an IC50 in assay [1] of 220 nM.

Regarding `CCCCCCCn1c(NC(=O)c2ccc(C#N)cc2)nc2cc(N(C)C(=O)C3CCCCC3)ccc21`, it took 4500 nM to reach half-maximal inhibition in assay [1] (IC50).

The molecule `CN(C(=O)C1CCCCC1)c1ccc2c(c1)nc(NC(=O)c1ccc(C#N)cc1)n2CCc1ccc(Cl)cc1Cl` had an IC50 in assay [1] of 2000 nM.

As to `CN(C(=O)C1CCCCC1)c1ccc2c(c1)nc(NC(=O)c1cccs1)n2CCC(N)=O`, the result in [6], in [7] and in assay [8] was inactive.

`CC(=O)c1ccc(C(=O)Nc2nc3cc(N(C)C(=O)C4CCCCC4)ccc3n2CCC(N)=O)cc1` gave an IC50 in assay [2] of over 10000 nM.

For the molecule `CN(C(=O)C1CCCCC1)c1ccc2c(c1)nc(NC(=O)c1ccc(Cl)cc1)n2CCC(N)=O`, the IC50 worked out at 440 nM in assay [4], 520 nM in assay [9] and 4100 nM in assay [5].

`CN(C(=O)C1CCCCC1)c1ccc2c(c1)nc(NC(=O)c1ccc(C#N)cc1)n2CC(N)=O` came in with an IC50 in assay [1] of 73 nM.

As to `CN(C(=O)C1CCCCC1)c1ccc2c(c1)nc(CC(=O)c1ccc(Cl)cc1)n2CCc1ccccc1`, in assay [1], the half-maximal inhibitory concentration (IC50) is over 20000 nM.

As for `CN(C(=O)C1CCCCC1)c1ccc2c(c1)nc(NC(=O)c1cccc(Br)c1)n2CCC(N)=O`, the IC50 was determined as 9 nM in assay [1] and 95 nM in assay [2].

As to `CN(C(=O)C1CCCCC1)c1ccc2c(c1)nc(NC(=O)c1ccc(Br)cc1)n2CCC(N)=O`, the figures for the IC50 in assay [1] and in [2] were 3 nM and over 10000 nM, respectively.

In turn, `CC(C)n1c(NC(=O)c2ccc(C#N)cc2)nc2cc(N(C)C(=O)C3CCCCC3)ccc21` had an IC50 in assay [1] of 35 nM.

Turning to `CC(=O)N1CCN(C(=O)c2cc(CSc3cnc(NC(=O)c4ccc(CNC(C)C(C)(C)C)cc4)s3)cc(C)c2C)CC1` (stereo not drawn), in [10], the Activity result was “Dose-dependent effect”.

On to `CNC(=O)c1ccc(C(=O)Nc2nc3cc(N(C)C(=O)C4CCCCC4)ccc3n2CCC(N)=O)cc1`, for which, in [1], the IC50 was found to be 1800 nM.

On to `COc1cccc(C(=O)Nc2nc3cc(N(C)C(=O)C4CCCCC4)ccc3n2CCC(N)=O)c1`, for which, in assay [2], the IC50 was 550 nM.

For the molecule `COc1ccc(C(=O)Nc2nc3cc(N(C)C(=O)C4CCCCC4)ccc3n2CCC(N)=O)cc1`, in assay [2], the IC50 was over 10000 nM.

As to `CNC(=O)CCn1c(NC(=O)c2ccc(C#N)cc2)nc2cc(N(C)C(=O)C3CCCCC3)ccc21`, in assay [1], the IC50 is 9 nM.

Usually IC50 stands for the concentration needed to halve the response being measured.
